A melting point compilation (Tetko et al.)

SMILES	melting point [°C]
CCOC(=O)Cn1ncc2ccc(N)cc21	114 to 116
Oc1ccnc2cc(F)c(F)cc12	298 to 300
Cc1nn(C2CCS(=O)(=O)C2)c2ncc(C=O)cc12 (stereo not drawn)	149 to 151
O=C1NC(=O)N(C2CC2)C1=O	115 to 117
Cc1ccc(N2CCc3c(N)cccc3C2)nn1	144 to 146
COc1ccc2c(c1)c(C(=O)O)c(C)n2Cc1ccccc1	209 to 211
CCC(C)c1ccc(-c2csc(N)n2)cc1 (stereo not drawn)	77 to 79
CC(=O)N1CCC(O)C1 (stereo not drawn)	77 to 79
O=C(O)c1cc([N+](=O)[O-])c(F)cc1Br	171 to 173
O=C(Nc1ccc(N2CCOCC2)nc1)OCC(F)(F)F	204 to 206
O=C(O)c1ccc2c(c1)C(=O)N(CCc1ccccc1)C2=O	215 to 217
COc1cccc(C(N)=S)c1OC	146 to 148
CC(=O)NCc1ccc(S(N)(=O)=O)cc1	170 to 172
O=C(c1cccnc1)c1cc2ccccc2o1	106 to 108
O=C(O)c1cc(S(=O)(=O)N2CCOCC2)ccc1Br	188 to 190
Cn1c(Cl)nnc1-c1ccc(Cl)cc1	179 to 181
O=C(O)C=Cc1cc[nH]c1	183 to 185
CN(C(N)=O)c1ccccc1	75 to 77
NNC(=O)Cc1ccncc1	91 to 93
O=C1CC2(CCCCC2)C(=O)N1	132 to 140
O=[N+]([O-])c1ccc(Cl)c2c1CCCN2	93 to 95

SMILES	melting point [°C]
O=C(O)CC=Cc1ccccc1F	54 to 56
COC(=O)c1nc(Cl)ccc1S(=O)(=O)Cl	143 to 145
COC(=O)c1cc(NS(=O)(=O)c2cccs2)cc(NS(=O)(=O)c2cccs2)c1	251 to 253
O=c1[nH]cnc2cc(Br)ccc12	262 to 264
COc1ccc(N)cc1S(=O)(=O)NC1CC1	163 to 165
Cc1c(C(=O)O)oc2c1ccc1ccccc12	206 to 208
O=S(=O)(O)C1CCCNC1 (stereo not drawn)	304 to 306
O=C1CC2(CCCC2)C(=O)O1	33 to 35
O=C(O)c1ccc(-c2nc(C3CC3)n[nH]2)cc1	237 to 239
O=C(NC(Cc1ccccc1)C(=O)O)c1ccc(Cl)cc1 (stereo not drawn)	195 to 197
O=c1[nH]c2ccc(NCc3ccccc3Cl)cc2[nH]1	227 to 229
Cc1ccnn1-c1ccccn1	34 to 36
NS(=O)(=O)c1ccc(S(=O)(=O)N2CCC(C(=O)O)CC2)cc1	190 to 192
O=C(O)/C=C/c1cccc(Cl)c1Cl	233 to 235
COc1ccc(S(=O)(=O)N2CCC(=O)CC2)cc1	126 to 128
N#Cc1cccc(NCc2ccc(Cl)cc2)c1	84 to 86
Cc1cc(C)cc(C(=O)/C=C2\NC(=O)CS2)c1	163 to 165
COc1ccc(C(=O)c2ccccc2C(=O)O)cc1F	147 to 149
O=C1C=CC(=O)N1c1cnccn1	116 to 118
COc1cccc(N2CC(C(=O)O)CC2=O)c1 (stereo not drawn)	166 to 168
O=C(O)c1cccc(Cl)c1O	173 to 175

SMILES	melting point [°C]
CCC(C)NS(=O)(=O)c1cccc(C(=O)O)c1 (stereo not drawn)	155 to 157
Nc1nonc1C(=O)O	214 to 216
NNC(=O)Cc1ccc(Cl)cc1	165 to 167
OCCn1ncc2ccccc21	48 to 50
CN1C(=O)CCC(C(N)=O)C1c1cnn(C)c1 (stereo not drawn)	185 to 187
Nc1c(-c2ccccc2)nc2sccn12	148 to 152
NC(=O)c1cccc(Cl)n1	124 to 126
COC(=O)COc1ccc(N)c(C)c1	104 to 106
COC(=O)Cc1ccc(S(=O)(=O)Cl)s1	59 to 61
CN(C)C(=O)Nc1cccc(C(=O)O)c1	209 to 211
CC(=N\O)/C(C)=N/O	240 to 241
CC(O)(c1ccc(O)cc1)C(F)(F)F (stereo not drawn)	118 to 120
CCCN(CCC)C(=O)C1C2C=CC(C2)C1C(=O)O (stereo not drawn)	113 to 115
Nc1cc(I)ccc1Br	64 to 66
SCCCNc1ncccn1	45 to 47
O=C(C1Cc2ccccc2CN1)N1CCCC1 (stereo not drawn)	88 to 90
CC1CN(C(=O)CC#N)CC(C)O1 (stereo not drawn)	125 to 127
N#Cc1ccc(S(=O)(=O)Cl)cc1Cl	51 to 53
O=C(CCl)Nc1ccc(S(=O)(=O)N2CCOCC2)cc1	145 to 147
NCCCN1C(=O)C2C3C=CC(C3)C2C1=O (stereo not drawn)	66 to 68
COc1cc(NC(=O)C2CC2C)c(C(=O)O)cc1OC (stereo not drawn)	207 to 209

Other lines, results leading:

melting point [°C]	SMILES
212 to 214	CC(C)(C)c1nn(-c2ccccc2)cc1C(=O)O
220 to 222	O=C(O)CC1=C(c2cccs2)N2CCN=C2S1
170 to 172	CC(=O)c1ccc2cc(O)ccc2c1
170 to 172	NC(=O)N1CCc2ccccc2C1
133 to 135	NC(=O)C1CN(C(=O)CCl)c2ccccc2O1 (stereo not drawn)
101 to 103	NCc1cccc(S(=O)(=O)NCc2cccc(F)c2)c1
159 to 161	Cc1cc(N)ccc1N1CCCC1=O
184 to 186	COc1ccc2c(c1)C=C(C(=O)O)CO2
124 to 126	NC(=S)c1cccc(S(=O)(=O)NC2CCCCCCC2)c1
91 to 93	O=C(O)CCOc1ccc(Br)cc1F
210 to 212	NC(=S)NN=Cc1ccccc1Cl
184 to 186	COC(=O)CC1=NC(=O)CS1
178 to 180	O=C(O)c1cc(Cl)ncc1[N+](=O)[O-]
238 to 242	O=c1c2ccccc2c(-c2nnc(S)o2)nn1Cc1ccccc1
247 to 249	O=C(O)c1cc2c([nH]c1=O)CCCCC2
108 to 110	CSCCC1NC(=O)NC1=O (stereo not drawn)
179 to 181	NC(=S)Nc1ccc2c(c1)CCC2
31 to 33	CCOC(=O)c1ncon1
136 to 138	CC1=CC(=C2Nc3cc(F)ccc3N2C(C)C)C=CC1=N
185 to 187	COC(=O)c1cnc2[nH]nc(C)c2c1

melting point [°C]	SMILES
141 to 143	O=C(O)CSc1ccc(O)cc1
87 to 89	CC(C)c1cc(C(=O)O)nn1C
114 to 116	Cc1ccc(-n2cc(S(=O)(=O)Cl)cn2)cc1S(=O)(=O)Cl
124 to 126	C=CC(=O)Nc1cc(OC)c(Cl)cc1OC
167 to 169	O=C(O)CCc1nc2ccccc2oc1=O
49 to 51	O=C1CCSc2ccc(Br)cc21
219 to 221	O=C(O)CNS(=O)(=O)c1ccc2c(c1)COC2
159 to 161	Clc1nnc(-c2ccccc2)n1C1CC1
138 to 140	NC(=S)NC1CC1
107 to 109	CCc1noc(-c2cc(Cl)ccc2N)n1
171 to 173	CNS(=O)(=O)c1ccc(Cl)c(C(=O)O)c1
182 to 184	COC(=O)C(Cc1c[nH]c2ccccc12)NC(=O)c1ccc2ccccc2c1 (stereo not drawn)
129 to 131	O=S(=O)(Cl)c1cnc2ccsc2c1
152 to 154	N#Cc1cc(C(F)(F)F)ccc1O
103 to 105	CCc1nc(C=O)c2ccccn12
100 to 102	NC(=O)CCc1ccccc1
97 to 99	CN(C)c1ncncc1N
166 to 168	c1ccc(COc2ccc3cn[nH]c3c2)cc1
139 to 141	O=C(O)CN1CC(=O)NC1=O
69 to 71	Cc1cc(SC(C)(C)C)ccc1N
